Experimental data reported in ChEMBL document CHEMBL2074528, “Canalicular multispecific organic anion transporter/multidrug resistance protein 2 mediates low-affinity transport of reduced glutathione” (Biochem J, 1999).

What was measured:
MRP2 (ABCC2) = MRP2 (ABCC2) (Homo sapiens, UniProt Q92887); assay: in vitro; conditions: dog, membrane vesicles from MRP2-expressing MDCK cells, probe DNP-SG
Description: TP_TRANSPORTER: inhibition of DNP-SG uptake (DNP-SG: 0.015 uM, GSH: 15 mM) in membrane vesicles from MRP2-expressing MDCK cells

[1] = substrate: N[C@@H](CCC(=O)N[C@H](CSc1ccc([N+](=O)[O-])cc1[N+](=O)[O-])C(=O)NCC(=O)O)C(=O)O; assay: TP_TRANSPORTER: uptake in membranes from MRP2-expressing MDCK cells; format: functional, cell membranes, MDCK-II, Membrane

N[C@@H](CCC(=O)N[C@@H](CS)C(=O)NCC(=O)O)C(=O)O [GLUTATHIONE]
activity at 15 mM (MRP2 (ABCC2)): 51%

B1: ATP-binding cassette sub-family C member 2 (Homo sapiens) (protein)
chain: MLEKFCNSTFWNSSFLDSPEADLPLCFEQTVLVWIPLGYLWLLAPWQLLHVYKSRTKRSSTTKLYLAKQVFVGFLLILAAIELALVLTEDSGQATVPAVRYTNPSLYLGTWLLVLLIQYSRQWCVQKNSWFLSLFWILSILCGTFQFQTLIRTLLQGDNSNLAYSCLFFISYGFQILILIFSAFSENNESSNNPSSIASFLSSITYSWYDSIILKGYKRPLTLEDVWEVDEEMKTKTLVSKFETHMKRELQKARRALQRRQEKSSQQNSGARLPGLNKNQSQSQDALVLEDVEKKKKKSGTKKDVPKSWLMKALFKTFYMVLLKSFLLKLVNDIFTFVSPQLLKLLISFASDRDTYLWIGYLCAILLFTAALIQSFCLQCYFQLCFKLGVKVRTAIMASVYKKALTLSNLARKEYTVGETVNLMSVDAQKLMDVTNFMHMLWSSVLQIVLSIFFLWRELGPSVLAGVGVMVLVIPINAILSTKSKTIQVKNMKNKDKRLKIMNEILSGIKILKYFAWEPSFRDQVQNLRKKELKNLLAFSQLQCVVIFVFQLTPVLVSVVTFSVYVLVDSNNILDAQKAFTSITLFNILRFPLSMLPMMISSMLQASVSTERLEKYLGGDDLDTSAIRHDCNFDKAMQFSEASFTWEHDSEATVRDVNLDIMAGQLVAVIGPVGSGKSSLISAMLGEMENVHGHITIKGTTAYVPQQSWIQNGTIKDNILFGTEFNEKRYQQVLEACALLPDLEMLPGGDLAEIGEKGINLSGGQKQRISLARATYQNLDIYLLDDPLSAVDAHVGKHIFNKVLGPNGLLKGKTRLLVTHSMHFLPQVDEIVVLGNGTIVEKGSYSALLAKKGEFAKNLKTFLRHTGPEEEATVHDGSEEEDDDYGLISSVEEIPEDAASITMRRENSFRRTLSRSSRSNGRHLKSLRNSLKTRNVNSLKEDEELVKGQKLIKKEFIETGKVKFSIYLEYLQAIGLFSIFFIILAFVMNSVAFIGSNLWLSAWTSDSKIFNSTDYPASQRDMRVGVYGALGLAQGIFVFIAHFWSAFGFVHASNILHKQLLNNILRAPMRFFDTTPTGRIVNRFAGDISTVDDTLPQSLRSWITCFLGIISTLVMICMATPVFTIIVIPLGIIYVSVQMFYVSTSRQLRRLDSVTRSPIYSHFSETVSGLPVIRAFEHQQRFLKHNEVRIDTNQKCVFSWITSNRWLAIRLELVGNLTVFFSALMMVIYRDTLSGDTVGFVLSNALNITQTLNWLVRMTSEIETNIVAVERITEYTKVENEAPWVTDKRPPPDWPSKGKIQFNNYQVRYRPELDLVLRGITCDIGSMEKIGVVGRTGAGKSSLTNCLFRILEAAGGQIIIDGVDIASIGLHDLREKLTIIPQDPILFSGSLRMNLDPFNNYSDEEIWKALELAHLKSFVASLQLGLSHEVTEAGGNLSIGQRQLLCLGRALLRKSKILVLDEATAAVDLETDNLIQTTIQNEFAHCTVITIAHRLHTIMDSDKVMVLDNGKIIECGSPEELLQIPGPFYFMAKEAGIENVNSTKF
Km [1]: 70 µM
